Results published in patent US20260283206A1, “SWEETENER COMPOSITIONS” (CARGILL, INCORPORATED, priority 2023, published 2026).
“Also recorded” adds a separate entry of the source.

Assay: Sensory panel assay of aqueous steviol glycoside solutions (roundtable consensus, descriptive analysis)
Type: in vivo
Conditions: 500 ppm in reverse osmosis water, panel of four; for Sensory Attribute Comments - Off-tastes (bitterness, metallic taste) / Sensory Attribute Comments - Sweetness (intensity / profile): compared against Reb A and Reb D/M
Method: Assays were carried out to characterize the sensory attributes, e.g., sweetness profile, of aqueous solutions of samples. Sensory attributes of the compositions were tested by a panel of individuals that are experienced in sensory testing. The experienced panelists assessed sensory attributes such as, but not limited to, bitterness, metallic notes, mouth drying, sweetness intensity, and sweetness linger. The panelists compared the sweeteners against Reb A and Reb D/M. To test each composition, the experienced panelists dispensed approximately 2-4 fl oz of each sample or solution into their own mouths, dispersed the solution by moving their tongues, and individually recorded a sensory attribute scale value. Between tasting solutions, the panelists were able to cleanse their palates with water and/or rice crackers.
Assays were carried out to characterize the sensory attributes of aqueous solutions. Sensory attributes were analyzed by a panel of four individuals using a roundtable consensus approach. All panelists used the assay method described above. The panelists provided a descriptive analysis of the samples. The sensory attributes of Reb A and Reb D/M are known, and thus Reb A and Reb D/M were used as comparative samples. The sweetness profile of Reb A is described in the art, for example in DuBois et al. (“Concentration—Repose Relationship of Sweeteners,” Sweeteners: Discovery, Molecular Design, and Chemoreception, Chapter 20, pages 261-276, American Chemical Society 1991).

SMILES | Sensory Attribute Comments - Off-tastes (bitterness, metallic taste) | Sensory Attribute Comments - Sweetness onset and rise | Sensory Attribute Comments - Sweetness (intensity / profile)
C=C1C[C@@]23CC[C@H]4[C@@](C)(CCC[C@@]4(C)C(=O)O[C@@H]4O[C@H](CO)[C@@H](O)[C@H](O)[C@H]4O[C@@H]4O[C@H](CO)[C@@H](O)[C@H](O)[C@H]4O)[C@@H]2CC[C@]1(O[C@@H]1O[C@H](CO)[C@@H](O)[C@H](O[C@@H]2O[C@H](CO)[C@@H](O)[C@H](O)[C@H]2O)[C@H]1O[C@@H]1OC[C@@H](C)[C@H](O)[C@H]1O)C3 [Sample 1, rebaudioside EM] | Off-tastes: Less bitter than Reb A. |  | 
C=C1CC23CCC4C(C)(C(=O)OC5OC(CO)C(O)C(OC6OC(CO)C(O)C(O)C6O)C5OC5OCC(O)C(O)C5O)CCCC4(C)C2CCC1(OC1OC(CO)C(O)C(OC2OC(CO)C(O)C(O)C2O)C1OC1OC(CO)C(O)C(O)C1O)C3 (stereo not drawn) [Sample 2, rebaudioside V2] | Off-tastes: Very faint bitterness. Quite clean sweetness. | (Reb D/M). Slight delay in onset (less delay than Sample; also recorded: very rapid rise | Sweetness: Higher peak sweetness than Sample 5
C=C1C[C@@]23CC[C@H]4[C@@](C)(CCC[C@@]4(C)C(=O)O[C@@H]4O[C@H](CO)[C@@H](O)[C@H](O)[C@H]4O)[C@@H]2CC[C@]1(O[C@@H]1O[C@H](CO)[C@@H](O)[C@H](O[C@@H]2O[C@H](CO)[C@@H](O)[C@H](O)[C@H]2O)[C@H]1O[C@@H]1O[C@H](CO)[C@@H](O)[C@H](O)[C@H]1O)C3 [Sample 3, rebaudioside A, reference compound] | Off-tastes: Typical Reb A bitterness, metallic taste. |  | Sweetness: Sweetness profile typical of Reb A.
